The record followed here is patent US20060029544A1, “Receptor-binding cyclic peptides and methods of use” (The Regents of the University of California Office of …, priority 2004, published 2006).

The target of one assay is T1, α5β1 integrin (Homo sapiens, UniProt P05556+P08648).
T1 construct: chimeras comprising the extracellular domain of αvβ3, αvβ5, α5β1, and αIIbβ3 linked to the Fc domain of either mouse IgG; purchased Celltech plc (supplied, no catalogue number)
Kind of assay: ELISA: soluble α5β1-hFc binding to immobilized 50 kDa fibronectin fragment in the presence of RGD peptides. The following applies: 20 μM peptide. From the text:
Four different soluble integrins were supplied by Celltech plc. Soluble forms of αvβ3, αvβ5, α5β1, and αIIbβ3 integrin were generated by constructing chimeras comprising the extracellular domain of αvβ3, αvβ5, α5β1, and αIIbβ3 linked to the Fc domain of either mouse IgG (αvβ3-mFc, αvβ5-mFc, and αIIbβ3-mFc) or human IgG (α5β1-hFc) as described by Stephens et al., Cell Adhes. Commun., 7:377-390 (2000) and Coe et al., J. Biol. Chem., 276:35854-35866 (2001). Since the four soluble integrin chimeras were supplied either as purified proteins (αvβ3-mFc and α5β1-hFc) or as unpurified hybridoma supernatants (αIIbβ3-mFc and αvβ5-mFc), it was necessary to use two types of ELISAs. […] In one type of ELISA (FIGS. 2A and 2B), the immobilized component is a 50 kDa fragment of fibronectin. In the second type of ELISA (FIGS. 2C and 2D), the immobilized component is a goat anti-mFc antibody that is used to capture chimeric proteins so that the RGD binding site of the integrin is maximally exposed. Each three-sided box in FIG. 2 represents a single well of a 96-well plate, and the components are listed in the sequence of their addition to the assay. The immobilized component at the bottom of the well is bound to the well by electrostatic interactions.
To analyze the affinity and selectively of RGD peptides for αvβ3 and α5β1, 96-well ELISA plates were coated with 100 μl of a 5 μg/ml of the 50 kDa fragment of fibronectin in PBS per well and left overnight at 4° C. The plates were washed with PBS using a Denley Wellwash 4 Mk 2. Washing was repeated twice with a 400 μl wash per well. 200 μ/well of blocking buffer (i.e., to prevent non-specific binding of proteins) was then added for 1 hour followed by a repeat washing with PBS. RGD peptides were then added at a maximum concentration of 200 μM and a preliminary screen was performed at three concentrations, 200,20, and 2 μM. 100 μl of an RGD peptide was added to each well and each assay was performed in triplicate. Purified soluble αvβ3-mFc or purified α5β1-hFc was diluted to 2 μg/ml and 15 ng/ml, respectively, in conjugate buffer and 100 μl was added to each well. The plates were incubated for 2 hours with shaking using a Luckham R100 Rotatest at approximately 150 rpm. After incubation, the plates were washed with PBS as previously described and a labeled antibody was added. For the αvβ3 assay, a horseradish peroxidase (HRP)-labeled F(ab′)2 fragment of goat anti-mouse IgG Fc was diluted 1:2000 in conjugate buffer and 100 μl was added to each well. For the α5β1 assay, an HRP-labeled F(ab′)2 fragment of goat anti-human IgG Fc was diluted 1:2000 in conjugate buffer and 100 μl was added to each well. Plates were incubated for 30 minutes with shaking followed by 2 washes with PBS. 100 μl of TMB substrate was added to each well and plates were shaken during a 10 minute color development. Plates were read using a plate spectrophotometer at 630 nm.
Two negative and two positive controls were used in both types of ELISAs. For example, the negative controls were wells that contained 50 μl of an active control peptide, integrin, and biotinylated ligand or 50 μl of the active control peptide and 50 μl of buffer. These negative control wells typically develop little to no color. […] These wells typically develop the maximum amount of color.
FIGS. 3-6 illustrate the percent binding of the vitronectin, fibronectin, or fibrinogen ligand to αvβ5, α5β1, αIIbβ3, or αvβ3 integrin in the presence of RGD peptides (i.e., linear (A), cyclic (B), or 4-[^19F]-fluorobenzoyl cyclic (C)) at different concentrations, with 100% maximum signal being the signal obtained in the absence of the peptide.
In general terms: In an ELISA, binding on a coated surface is turned into a signal by an enzyme label.

Another assay relates to VUP melanoma cell line. Briefly: Adhesion assay: [51Cr]-VUP cells to vitronectin. The assay is classed as cell-based. The conditions noted are these: 20 μM peptide. How it is done:
RGD peptides were plated at a maximum concentration of 200 μM and a minimum concentration of 2 nM. For each RGD peptide sequence, linear peptides (A), cyclic peptides (B), and 4-[^19F]-fluorobenzoyl cyclic peptides (C) were assayed. Each RGD peptide concentration was performed in quadruplicate and each experiment was repeated twice.
Plastic 96-well plates (Falcon 3912; Becton Dickinson) were coated with 50 μl substrate (10 μg/ml laminin or 5 μg/ml vitronectin). The plates were incubated at 37° C. in an 8% CO2 atmosphere for 1 hour. Unbound protein was flicked off and the plates were washed with phosphate buffered saline (PBS) and blocked with bovine serum albumin (0.1% w/v BSA)/PBS/0.1% sodium azide) for 1 hour. The plates were then washed with PBS, placed on a bed of ice and 25 μl of peptide was added to the wells.
Sodium [^51Cr] chromate was purchased from Amersham International, UK. […]
25 μl (about 10,000 cells) were added to each quadruplicate well and the plates incubated at 37° C. in an 8% CO2 atmosphere for 1 hour. […] The radioactivity associated with each well was determined in a gamma counter (1261 Multigamma; Wallac, Sweden). Quadruplicate 25 μl samples of labeled cells were counted as 100% input values. To determine non-specific binding, the ability of cells to bind BSA-coated wells was also assessed. […]
The results were calculated as follows: [formula] […]

T1 sequence (P08648 42-995 limits assumed): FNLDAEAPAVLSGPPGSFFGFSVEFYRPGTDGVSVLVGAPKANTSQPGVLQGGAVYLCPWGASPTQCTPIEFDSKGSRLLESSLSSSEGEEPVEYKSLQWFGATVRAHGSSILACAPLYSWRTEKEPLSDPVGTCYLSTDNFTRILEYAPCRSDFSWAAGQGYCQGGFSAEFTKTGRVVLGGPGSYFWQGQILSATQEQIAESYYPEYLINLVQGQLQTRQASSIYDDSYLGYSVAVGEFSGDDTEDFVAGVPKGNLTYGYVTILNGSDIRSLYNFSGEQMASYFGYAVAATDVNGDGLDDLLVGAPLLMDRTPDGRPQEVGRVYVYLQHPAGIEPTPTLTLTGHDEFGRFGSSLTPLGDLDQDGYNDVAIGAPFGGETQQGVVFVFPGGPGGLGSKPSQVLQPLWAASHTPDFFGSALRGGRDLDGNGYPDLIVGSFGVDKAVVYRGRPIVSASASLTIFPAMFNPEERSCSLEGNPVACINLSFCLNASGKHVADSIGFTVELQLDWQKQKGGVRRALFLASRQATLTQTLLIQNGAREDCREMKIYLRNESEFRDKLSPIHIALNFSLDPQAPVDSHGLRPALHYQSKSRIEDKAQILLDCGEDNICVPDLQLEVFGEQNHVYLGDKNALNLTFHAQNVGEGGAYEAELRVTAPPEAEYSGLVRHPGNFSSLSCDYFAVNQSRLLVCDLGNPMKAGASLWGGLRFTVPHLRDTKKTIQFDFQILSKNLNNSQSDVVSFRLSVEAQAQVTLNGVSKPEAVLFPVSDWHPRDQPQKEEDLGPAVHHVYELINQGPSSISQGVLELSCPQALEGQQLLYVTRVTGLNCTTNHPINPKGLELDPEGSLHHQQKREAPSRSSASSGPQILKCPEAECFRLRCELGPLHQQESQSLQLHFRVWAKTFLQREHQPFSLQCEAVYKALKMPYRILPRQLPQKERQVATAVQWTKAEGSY
T1 sequence (P05556 21-728 limits assumed): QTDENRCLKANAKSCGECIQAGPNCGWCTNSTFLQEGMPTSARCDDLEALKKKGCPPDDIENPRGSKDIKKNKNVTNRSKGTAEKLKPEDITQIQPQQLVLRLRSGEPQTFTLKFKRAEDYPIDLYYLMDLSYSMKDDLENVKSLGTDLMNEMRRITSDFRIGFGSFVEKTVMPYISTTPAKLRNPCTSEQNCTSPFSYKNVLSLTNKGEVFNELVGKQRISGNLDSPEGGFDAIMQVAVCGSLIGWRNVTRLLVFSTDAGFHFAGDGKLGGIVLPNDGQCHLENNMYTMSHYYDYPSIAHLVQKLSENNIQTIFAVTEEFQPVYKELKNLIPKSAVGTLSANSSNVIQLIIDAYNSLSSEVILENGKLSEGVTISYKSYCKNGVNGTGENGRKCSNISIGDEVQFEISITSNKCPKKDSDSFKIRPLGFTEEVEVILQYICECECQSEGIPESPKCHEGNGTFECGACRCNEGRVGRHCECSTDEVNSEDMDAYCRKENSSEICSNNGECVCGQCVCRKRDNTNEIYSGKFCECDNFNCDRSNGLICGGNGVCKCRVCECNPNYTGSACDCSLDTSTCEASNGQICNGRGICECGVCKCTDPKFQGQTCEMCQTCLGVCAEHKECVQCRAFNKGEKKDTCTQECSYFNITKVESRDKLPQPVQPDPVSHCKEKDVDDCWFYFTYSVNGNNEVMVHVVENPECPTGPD

As to RGDY(OMe)K [B7], the “fibronectin binding to α5β1, % of the maximum signal” value on α5β1 integrin was found to be 48.4%. Also, in the assay on VUP melanoma cell line, the “adhesion of [51Cr]-VUP cells to vitronectin, normalized to absence of peptide (100%)” value is reported as 44.16%±1.71%.
